Measurements published in EP4417607A1, “HETEROCYCLIC COMPOUND AS SOS1 INHIBITOR AND USES THEREOF” (Nanjing Zaiming Pharmaceutical Co., Ltd., priority 2021, dated 2023).

system: p-ERK pathway in H358 cells; test: p-ERK pathway inhibition in H358 cells (Advanced phospho-ERK (Thr202/Tyr204) cellular kit, HTRF); assay type: cell-based; conditions: Homo sapiens, NCI-H358, 1 h compound incubation
Method: The effect of the compounds of the present invention on H358 cell p-ERK pathway was assessed by Advanced phospho-ERK (Thr202/Tyr204) cellular kit method.
The experimental procedures were summarized as follows: H358 cells (ATCC, CRL-5807) were cultured in RPMI1640 (ThermoFisher, A1049101) complete medium containing 10% FBS (Gibco, 10100147) and 100 U/mL penicillin-streptomycin mixed solution (Gibco, 15140163). When the coverage of the cells in the culture vessel reached 80-90%, the cells were pipetted and seeded in a 96-well plate (Corning, 3599) at 50000 cells/well (90 µL RPMI1640 complete medium), and the plate was left to stand for 5 min, cultured in an incubator at 37 °C with 5% CO2 for 6 h, replaced with a serum-free RPMI1640, and starved overnight.
After incubation overnight, 10 µL of a diluted test compound was added to each well using a multi-channel pipette, and the 96-well plate was cultured in an incubator at 37 °C with 5% CO2 for 1 h. The supernatant was poured. The cells were washed once with PBS. 50 µL of a lysis buffer (Advanced phospho-ERK (Thr202/Tyr204) cellular kit, 64AERPEH) was added to each well. The plate was shaken at room temperature at 450 rpm for 1 h. After the cells were completely lysed, 16 µL of the supernatant was added to a 384-well plate (PE, 6007299), mixed energy donor Eu and energy acceptor D2 (D2/Eu = 1:1) were added, and the plate was incubated at room temperature for 4 h. HTRF on the microplate reader was selected for plate reading, Ratio = Signal 665 nm/Signal 620 nm × 10^4. In this experiment, the cell-free group (replaced with 1640 medium) was used as the 100% inhibition group, and the compound-free group in which the cell was added was used as the 0% inhibition group.
The inhibition percentage of H358 cell p-ERK pathway by the compounds of the present invention could be calculated by the following formula: [formula]
(§1) IC50 values of the compounds were calculated from 8 concentration points using XLfit (ID Business Solutions Ltd., UK) software by the following formula: Y = Bottom + (Top−Bottom)/(1+10^(∧)((logIC50−X)×slopefactor)) [formula]
Y is the inhibition percentage, X is the logarithmic value of the concentration of the test compound, Bottom is the minimum inhibition percentage, Top is the maximum inhibition percentage, and slope factor is the slope coefficient of the curve. The default fitted curve was used to fit the slope of the S-shaped curve to determine the IC50 value. Table 2. Results of p-ERK inhibition test by the compounds of the present invention

| IC50 [nM] | Compound |
| --- | --- |
| 127 | Cc1nc(N[C@H](C)c2cccc(C(F)F)c2F)c2cn(C3(CF)CC3)c(=O)c(-c3cnc4cnn(C)c4c3)c2n1 [Example 129, (R)-4-((1-(3-(difluoromethyl)-2-fluorophenyl)ethyl)amino)-6-(1-(fluoromethyl)cyclopropyl)-2-methyl-8-(1-methyl-1H-pyrazolo[4,3-b]pyridin-6-yl)pyrido[4,3-d]pyrimidine-7(6H)-one] |
| 131 | COC1(c2c(=O)n(C3(CF)CC3)cc3c(N[C@H](C)c4cccc(C(F)F)c4F)nc(C)nc23)CCOC1 (stereo partly drawn) [Example 140, 4-(((R)-1-(3-(difluoromethyl)-2-fluorophenyl)ethyl)amino)-6-(1-(fluoromethyl)cyclopropyl)-8-(3-methoxytetrahydrofuran-3-yl)-2-methylpyrido[4,3-d]pyrimidine-7(6H)-one] |
| 33.7 | COc1c(=O)n(C2(CF)CCN(C(C)=O)C2)cc2c(N[C@H](C)c3cccc(C#N)c3C)nc(C)nc12 (stereo partly drawn) [Example 17, 3-((1R)-1-((6-(1-acetyl-3-(fluoromethyl)pyrrolidin-3-yl)-8-methoxy-2-methyl-7-oxo-6,7-dihydropyrido[4,3-d]pyrimidin-4-yl)amino)ethyl)-2-methylbenzonitrile] |
| 98.4 | Cc1nc(N[C@H](C)c2cccc(C(F)F)c2F)c2cn(C3(CF)CC3)c(=O)c(NC[C@@H]3CCO3)c2n1 [Example 105, 4-(((R)-1-(3-(difluoromethyl)-2-fluorophenyl)ethyl)amino)-6-(1-(fluoromethyl)cyclopropyl)-2-methyl-8-((((S)-oxetan-2-yl)methyl)amino)pyrido[4,3-d]pyrimidine-7(6H)-one] |
| 127 | Cc1nc(N[C@H](C)c2cccc(C(F)F)c2F)c2cn(C3(CF)CC3)c(=O)c(C(F)(F)F)c2n1 [Example 2, (R)-4-((1-(3-(difluoromethyl)-2-fluorophenyl)ethyl)amino)-6-(1-(fluoromethyl)cyclopropyl)-2-methyl-8-(trifluoromethyl)pyrido[4,3-d]pyrimidine-7(6H)-one] |
| 110 | Cc1nc(N[C@H](C)c2cccc(C(F)F)c2F)c2cn(C3(CF)CC3)c(=O)c(N3CC(S(C)(=O)=O)C3)c2n1 [Example 111, (R)-4-((1-(3-(difluoromethyl)-2-fluorophenyl)ethyl)amino)-6-(1-(fluoromethyl)cyclorol-2-methyl-8-3-methylsulfonylazetidin-1-yl)pyrido[4,3-d]pyrimidine-7(6H)-one] |
| 46.9 | Cc1nc(N[C@H](C)c2cccc(C(F)F)c2F)c2cn(C3(CF)CC3)c(=O)c(N3C[C@@H](F)[C@@H](F)C3)c2n1 [Example 107, 4-(((R)-1-(3-(difluoromethyl)-2-fluorophenyl)ethyl)amino)-8-((3S,4R)-3,4-difluoropyrrolidin-1-yl)-6-(1-(fluoromethyl)cyclopropyl)-2-methylpyrido[4,3-d]pyrimidine-7(6H)-one] |
| 124 | Cc1nc(N[C@H](C)c2cccc(C(F)F)c2F)c2cn(C3(CF)CC3)c(=O)c(N3C[C@H]4CC[C@@H](C3)O4)c2n1 [Example 54, 8-((1R,5S)-8-oxa-3-azabicyclo[3.2.1]octan-3-yl)-4-(((R)-1-(3-(difluoromethyl)-2-fluorophenyl)ethyl)amino)-6-(1-(fluoromethyl)cyclopropyl)-2-methylpyrido[4,3-d]pyrimidine-7(6H)-one] |
| 50.1 | Cc1nc(N[C@H](C)c2cccc(C(F)F)c2F)c2cn(C3(CF)CC3)c(=O)c(-n3cc(C#N)cn3)c2n1 [Example 101, (R)-1-(4-((1-(3-(difluoromethyl)-2-fluorophenyl)ethyl)amino)-6-(1-(fluoromethyl)cyclopropyl)-2-methyl-7-oxo-6,7-dihydropyrido[4,3-d]pyrimidin-8-yl)-1H-pyrazole-4-carbonitrile] |
| 176 | Cc1nc(N[C@H](C)c2cccc(C(F)F)c2F)c2cn(C3(CF)CC3)c(=O)c(N3C[C@H]4C[C@@H]3CO4)c2n1 [Example 53, 8-((1R,4R)-2-oxa-5-azabicyclo[2.2.1]heptan-5-yl)-4-(((R)-1-(3-(difluoromethyl)-2-fluorophenyl)ethyl)amino)-6-(1-(fluoromethyl)cyclopropyl)-2-methylpyrido[4,3-d]pyrimidine-7(6H)-one] |
| 138 | Cc1nc(N[C@H](C)c2cccc(C(F)F)c2F)c2cn(C3(CF)CC3)c(=O)c(-c3cnn4c3CCC4)c2n1 [Example 170] |
| 79.3 | Cc1nc(N[C@H](C)c2cccc(C(F)F)c2F)c2cn(N3CCOCC3)c(=O)c(N3CCO[C@@H](C)C3)c2n1 [Example 79] |
| 107 | Cc1nc(N[C@H](C)c2cccc(C(F)F)c2F)c2cn(N3CCOCC3)c(=O)c(OCC3(C)COC3)c2n1 [Example 121, (R)-4-((1-(3-(difluoromethyl)-2-fluorophenyl)ethyl)amino)-2-methyl-8-((3-methloxetan-3-yl)methoxy)-6-morpholinylpyrido[4,3-d]pyrimidine-7(6H)-one] |
| 98.3 | Cc1nc(N[C@H](C)c2cccc(C(F)F)c2F)c2cn(C3(CF)CC3)c(=O)c(N3CCC(C)(C#N)CC3)c2n1 [Example 173] |
| 70.4 | COc1c(=O)n(N2CCOCC2)cc2c(N[C@H](C)c3cccc([N+](=O)[O-])c3C)nc(C)nc12 [Example 24, (R)-4-((1-(2-methyl-3-nitrophenyl)ethyl)amino)-8-methoxy-2-methyl-6-morpholinepyrido[4,3-d]pyrimidine-7(6H)-one] |
| 77 | Cc1nc(N[C@H](C)c2cccc(S(F)(F)(F)(F)F)c2)c2cn(N3CCOCC3)c(=O)c(N3CCOCC3)c2n1 [Example 81, (R)-2-methyl-6,8-dimorpholine-4-((1-(3-(pentafluoro-λ^6-sulfanyl)phenyl)ethyl)amino)pyrido[4,3-d]pyrimidine-7(6H)-one] |

| Compound | IC50 [nM] |
| --- | --- |
| Cc1nc(N[C@H](C)c2cccc(C(F)F)c2F)c2cn(C3(CF)CC3)c(=O)c(N3C4CCC3COC4)c2n1 [Example 44, 8-(3-oxa-8-azabicyclo[3.2.1]oct-8-yl)-4-(((R)-1-(3-(difluoromethyl)-2-fluorophenyl)ethyl)amino)-6-(1-(fluoromethyl)cyclopropyl)-2-methylpyrido[4,3-d]pyrimidine-7(6H)-one] | 131 |

system: H358 cells; test: H358 cell proliferation inhibition (CellTiter-Glo luminescent cell viability assay); assay type: cell-based; conditions: Homo sapiens, NCI-H358, 168 h, 7 days
Method: The effect of the compounds of the present invention on H358 cell proliferation was assessed by CellTiter-Glo luminescent cell viability assay kit method.
H358 cells (ATCC, CRL-5807) were cultured in RPMI1640 (Hyclone, SH30256.01) complete medium containing 10% FBS (Gibco, 10100147) and 100 U/mL penicillin-streptomycin mixed solution (Gibco, 15140163). When the cells grew to 80-90%, the cells were digested, pipetted, and seeded in a 96-well plate (Corning, 4515) at 3000 cells/well (180 µL RPMI1640 complete medium), and then the 96-well plate was incubated overnight in an incubator at 37 °C with 5% CO2.
After incubation overnight, 20 µL of a diluted test compound was added to each well using a multi-channel pipette, and the 96-well plate was placed in an incubator at 37 °C with 5% CO2 for further culture. After 7 days, 100 µL of the supernatant was pipetted and discarded. 50 µL of CellTiter-Glo® 3D Cell Viability Assay liquid was added to each well. The plate was shaken at room temperature at 450 rpm for 30 min. After the cells were completely lysed, "Luminescence" on the microplate reader was selected for plate reading. In this experiment, the cell-free group (replaced with 1640 medium) was used as the 100% inhibition group, and the compound-free group in which the cell was added was used as the 0% inhibition group.
The inhibition percentage of H358 cell proliferation by the compounds of the present invention could be calculated by the following formula: [formula]
as §1
Y is the inhibition percentage, X is the logarithmic value of the concentration of the test compound, Bottom is the minimum inhibition percentage, Top is the maximum inhibition percentage, and slope factor is the slope coefficient of the curve.

| IC50 [nM] | Compound |
| --- | --- |
| 69.9 | Cc1nc(N[C@H](C)c2cccc(C(F)F)c2F)c2cn(C3(CF)CC3)c(=O)c(N3CCN(C4COC4)CC34CC4)c2n1 [Example 146, (R)-4-((1-(3-(difluoromethyl)-2-fluorophenyl)ethyl)amino)-6-(1-(fluoromethyl)cyclopropyl)-2-methyl-8-(7-(oxetan-3-yl)-4,7-diazaspiro [2.5]octan-4-yl)pyrido [4,3-d]pyrimidine-7(6H)-one] |
| 84.8 | Cc1nc(N[C@H](C)c2cccc(C(F)F)c2F)c2cn(C3(CF)CC3)c(=O)c(NC(=O)c3ccccn3)c2n1 [Example 157] |
| 40.7 | Cc1nc(N[C@H](C)c2cccc(C#N)c2C)c2cn(N3CCOCC3)c(=O)c(-c3ccc(C#N)nc3)c2n1 [Example 64, (R)-5-(4-((1-(3-cyano-2-methylphenyl)ethyl)amino)-2-methyl-6-morpholine-7-oxo-6,7-dihydropyrido[4,3-d]pyrimidin-8-yl)pyridinecarbonitrile] |
| 61.4 | COc1c(=O)n(C2(CF)CC2)cc2c(N[C@H](C)c3cccc(C#N)c3C)nc(C)nc12 [Example 3, (R)-3-(1-((6-(1-(fluoromethyl)cyclopropyl)-8-methoxy-2-methyl-7-oxo-6,7-dihydropyrido[4,3-d]pyrimidin-4-yl)amino)ethyl)-2-methylbenzonitrile] |
